# Laboratory results taken from ChEMBL document CHEMBL3352046, “Serendipitous discovery of 2-((phenylsulfonyl)methyl)-thieno[3,2-d]pyrimidine derivatives as novel HIV-1 replication inhibitors” (Bioorg Med Chem Lett, 2014).
# How the values were obtained:
# [1] = system: Human immunodeficiency virus 1; assay: Antiviral activity against HIV-1 LAI infected in human CEMx174-LTR-GFP CG8 cells assessed as inhibition of viral replication after 5 days; format: functional, organism-based; settings: Human immunodeficiency virus 1, LAI, 120 h
# [2] = Cytotoxicity against human CEmx174 cells expressing GFP after 5 days by resazurin assay; format: cell-based
# Cytochrome P450 3A4 = Cytochrome P450 3A4 (Homo sapiens, UniProt P08684); assay: Inhibition of recombinant CYP3A4 (unknown origin) after 3 mins by LC-MS/MS analysis; format: ADME
# Cytochrome P450 2C9 = Cytochrome P450 2C9 (Homo sapiens, UniProt P11712); assay: Inhibition of recombinant CYP2C9 (unknown origin) after 10 mins by LC-MS/MS analysis; format: ADME
# Cytochrome P450 1A2 = molecular target: T1, Cytochrome P450 1A2 (Homo sapiens, UniProt P05177); assay: Inhibition of recombinant CYP1A2 (unknown origin) after 10 mins by LC-MS/MS analysis; format: ADME
# T1 sequence (P05177 whole entry): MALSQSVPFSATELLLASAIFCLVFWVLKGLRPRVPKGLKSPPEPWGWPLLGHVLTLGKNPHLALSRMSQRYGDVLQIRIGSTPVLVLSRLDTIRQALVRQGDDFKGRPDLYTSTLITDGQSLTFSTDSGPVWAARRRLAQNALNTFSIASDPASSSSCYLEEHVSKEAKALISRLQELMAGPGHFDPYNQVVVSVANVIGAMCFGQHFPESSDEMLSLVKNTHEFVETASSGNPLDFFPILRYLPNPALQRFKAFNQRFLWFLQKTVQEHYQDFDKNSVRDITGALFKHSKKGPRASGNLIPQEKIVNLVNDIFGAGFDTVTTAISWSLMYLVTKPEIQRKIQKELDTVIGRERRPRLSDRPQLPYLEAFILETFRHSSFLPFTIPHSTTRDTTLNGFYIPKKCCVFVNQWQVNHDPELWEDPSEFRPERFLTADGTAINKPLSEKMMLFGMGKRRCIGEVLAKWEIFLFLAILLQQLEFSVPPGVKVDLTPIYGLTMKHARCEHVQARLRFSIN
# [3] = Therapeutic index, ratio of CC50 for human CEmx174 cells expressing GFP to IC50 for HIV-1 LAI infected in human CEMx174-LTR-GFP CG8 cells; settings: read-out: Ratio CC50/EC50
# Cytochrome P450 2D6 = Cytochrome P450 2D6 (Homo sapiens, UniProt P10635); assay: Inhibition of recombinant CYP2D6 (unknown origin) after 20 mins by LC-MS/MS analysis; format: ADME
# Cytochrome P450 2D6, sequence (P10635 whole entry): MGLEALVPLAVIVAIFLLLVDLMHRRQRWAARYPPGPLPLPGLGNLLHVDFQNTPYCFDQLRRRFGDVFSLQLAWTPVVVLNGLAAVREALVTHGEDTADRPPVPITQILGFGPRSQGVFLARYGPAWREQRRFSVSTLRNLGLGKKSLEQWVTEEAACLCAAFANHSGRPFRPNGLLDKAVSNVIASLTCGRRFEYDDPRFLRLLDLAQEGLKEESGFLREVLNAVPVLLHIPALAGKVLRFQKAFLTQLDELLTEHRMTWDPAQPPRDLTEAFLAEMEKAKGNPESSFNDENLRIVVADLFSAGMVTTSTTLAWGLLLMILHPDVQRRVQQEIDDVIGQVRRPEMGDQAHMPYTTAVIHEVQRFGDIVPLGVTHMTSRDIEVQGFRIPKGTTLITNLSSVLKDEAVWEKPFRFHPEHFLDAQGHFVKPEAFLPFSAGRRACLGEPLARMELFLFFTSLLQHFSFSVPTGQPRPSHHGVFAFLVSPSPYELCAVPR
# Cytochrome P450 3A4, sequence (P08684 whole entry): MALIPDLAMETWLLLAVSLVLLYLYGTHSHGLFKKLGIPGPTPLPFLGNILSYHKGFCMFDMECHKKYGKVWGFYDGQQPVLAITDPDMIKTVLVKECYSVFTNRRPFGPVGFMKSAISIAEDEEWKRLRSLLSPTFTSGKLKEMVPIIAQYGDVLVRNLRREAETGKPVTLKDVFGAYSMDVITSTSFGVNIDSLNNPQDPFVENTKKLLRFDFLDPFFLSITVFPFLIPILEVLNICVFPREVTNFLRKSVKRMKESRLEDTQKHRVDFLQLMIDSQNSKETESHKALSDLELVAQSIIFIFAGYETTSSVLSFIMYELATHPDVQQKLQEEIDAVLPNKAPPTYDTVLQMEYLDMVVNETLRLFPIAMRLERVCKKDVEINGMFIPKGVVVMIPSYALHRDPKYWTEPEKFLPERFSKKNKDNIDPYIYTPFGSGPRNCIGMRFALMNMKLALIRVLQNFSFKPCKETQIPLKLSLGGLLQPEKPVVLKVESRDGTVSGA
# Cytochrome P450 2C9, sequence (P11712 whole entry): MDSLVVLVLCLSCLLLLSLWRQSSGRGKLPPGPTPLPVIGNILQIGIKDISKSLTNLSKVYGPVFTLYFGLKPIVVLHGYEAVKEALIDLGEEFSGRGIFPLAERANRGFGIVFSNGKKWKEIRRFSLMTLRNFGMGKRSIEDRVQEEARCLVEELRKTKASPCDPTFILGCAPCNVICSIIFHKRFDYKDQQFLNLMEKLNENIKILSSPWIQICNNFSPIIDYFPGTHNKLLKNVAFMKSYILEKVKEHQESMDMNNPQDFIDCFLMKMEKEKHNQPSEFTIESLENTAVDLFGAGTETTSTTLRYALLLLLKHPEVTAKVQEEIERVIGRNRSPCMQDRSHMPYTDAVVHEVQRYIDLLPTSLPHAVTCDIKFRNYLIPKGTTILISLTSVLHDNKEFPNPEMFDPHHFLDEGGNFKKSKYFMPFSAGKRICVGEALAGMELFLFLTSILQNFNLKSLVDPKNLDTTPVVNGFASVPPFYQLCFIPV
Compound,EC50 [1],CC50 at 120 h [2],IC50 (Cytochrome P450 3A4),IC50 (Cytochrome P450 2C9),IC50 (Cytochrome P450 1A2),selectivity ratio [3],IC50 (Cytochrome P450 2D6)
CCC1=C(C(=O)OCC2CCCCC2)C(c2cccc(O)c2)NC(=O)N1 (stereo not drawn),0.53 µM,> 10 µM,,,,,
c1ccc(-c2cc(CNc3nncc(-c4cccc5ccccc45)n3)n[nH]2)cc1,0.27 µM,> 10 µM,,,,,
COc1ccc(-c2nc(CS(=O)(=O)c3cccc(Cl)c3)nc3ccsc23)cn1,0.025 µM,> 10 µM,6.71 µM,5.25 µM,> 10 µM,> 400,> 10 µM
O=S(=O)(Cc1nc(-c2cccnc2)c2sccc2n1)c1cccc(Cl)c1,0.485 µM,> 50 µM,,,,> 103,
O=S(=O)(Cc1nc(-c2ccncc2)c2sccc2n1)c1cccc(Cl)c1,0.189 µM,> 50 µM,,,,> 264,
O=S(=O)(Cc1nc(-c2ccnc(Cl)c2)c2sccc2n1)c1cccc(Cl)c1,0.27 µM,63 µM,,,,233,
O=S(=O)(Cc1nc(-c2ccc(Cl)nc2)c2sccc2n1)c1cccc(Cl)c1,3.2 µM,70 µM,,,,21,
O=S(=O)(Cc1nc(-c2ccc(F)nc2)c2sccc2n1)c1cccc(Cl)c1,6 µM,40 µM,,,,6.6,
O=c1ccc(-c2nc(CS(=O)(=O)c3cccc(Cl)c3)nc3ccsc23)c[nH]1,0.915 µM,> 50 µM,,,,> 54,
COc1ccc(-c2nc(CS(=O)(=O)c3cccc(Cl)c3)nc3ccsc23)cc1,0.103 µM,69 µM,,,,669,
O=S(=O)(Cc1nc(-c2cccs2)c2sccc2n1)c1cccc(Cl)c1,0.14 µM,> 50 µM,,,,> 357,
O=S(=O)(Cc1nc(-c2ccoc2)c2sccc2n1)c1cccc(Cl)c1,0.775 µM,> 50 µM,,,,> 64,
O=S(=O)(Cc1nc(N2CCOCC2)c2sccc2n1)c1cccc(Cl)c1,0.59 µM,> 50 µM,,,,> 84,
COc1ccc(Nc2nc(CS(=O)(=O)c3cccc(Cl)c3)nc3ccsc23)cc1,3.2 µM,60 µM,,,,18.8,
COc1ccc(Oc2nc(CS(=O)(=O)c3cccc(Cl)c3)nc3ccsc23)cc1,0.831 µM,> 50 µM,,,,> 60,
COc1ccc(-c2nc(S(=O)(=O)c3cccc(Cl)c3)nc3ccsc23)cn1,0.322 µM,> 50 µM,,,,> 155,
COc1ccc(-c2nc(CCS(=O)(=O)c3cccc(Cl)c3)nc3ccsc23)cn1,5.4 µM,> 50 µM,,,,> 9.2,
COc1ccc(-c2nc(C[S+]([O-])c3cccc(Cl)c3)nc3ccsc23)cn1 (stereo not drawn),0.532 µM,> 50 µM,,,,> 93,
COc1ccc(-c2nc(CSc3cccc(Cl)c3)nc3ccsc23)cn1,0.014 µM,> 10 µM,,,,> 714,
COc1ccc(-c2nc(/C=C\c3cccc(Cl)c3)nc3ccsc23)cn1,8 µM,53 µM,,,,6.6,

Compound,EC50 [1],CC50 at 120 h [2],IC50 (Cytochrome P450 3A4),IC50 (Cytochrome P450 2C9),IC50 (Cytochrome P450 1A2),selectivity ratio [3],IC50 (Cytochrome P450 2D6)
COc1ccc(-c2nc(CCc3cccc(Cl)c3)nc3ccsc23)cn1,1.6 µM,> 50 µM,,,,> 31,
COc1ccc(-c2nc(CC(=O)c3cccc(Cl)c3)nc3ccsc23)cn1,0.2 µM,30 µM,,,,150,
COc1ccc(-c2nc(CC(O)c3cccc(Cl)c3)nc3ccsc23)cn1 (stereo not drawn),9 µM,31 µM,,,,3.4,
COc1ccc(-c2nc(CNc3cccc(Cl)c3)nc3ccsc23)cn1,0.672 µM,> 50 µM,,,,> 74,
COc1ccc(-c2nc(COc3cccc(Cl)c3)nc3ccsc23)cn1,0.384 µM,> 50 µM,,,,> 130,
COc1ccc(-c2nc(C3(S(=O)(=O)c4cccc(Cl)c4)CC3)nc3ccsc23)cn1,0.069 µM,> 50 µM,,,,> 724,
COc1ccc(-c2nc(C(C)S(=O)(=O)c3cccc(Cl)c3)nc3ccsc23)cn1 (stereo not drawn),0.084 µM,> 50 µM,,,,> 595,
COc1ccc(-c2nc(C(F)S(=O)(=O)c3cccc(Cl)c3)nc3ccsc23)cn1 (stereo not drawn),0.087 µM,> 50 µM,,,,> 574,
COc1ccc(-c2nc(C(F)(F)S(=O)(=O)c3cccc(Cl)c3)nc3ccsc23)cn1,0.237 µM,> 50 µM,,,,> 210,
COc1ccc(-c2nc(C(C)(C)S(=O)(=O)c3cccc(Cl)c3)nc3ccsc23)cn1,2.3 µM,> 50 µM,,,,> 21,
COc1ccc(-c2nc(CSc3cc(Cl)ccc3Cl)nc3ccsc23)cn1,0.728 µM,> 50 µM,,,,> 68,
COc1ccc(-c2nc(CSc3cccc(Cl)c3Cl)nc3ccsc23)cn1,5 µM,> 50 µM,,,,> 10,
COc1ccc(-c2nc(CSc3cccc(C(F)(F)F)c3)nc3ccsc23)cn1,0.262 µM,> 50 µM,,,,> 190,
COc1ccc(-c2nc(CSc3cccc(Br)c3)nc3ccsc23)cn1,0.158 µM,> 50 µM,,,,> 316,
COc1ccc(-c2nc(CSc3ccc(F)cc3F)nc3ccsc23)cn1,5 µM,> 50 µM,,,,> 10,
COc1ccc(-c2nc(CSc3cc(C)cc(C)c3)nc3ccsc23)cn1,0.774 µM,> 50 µM,,,,> 64,
COc1ccc(-c2nc(CSc3ccc(C(F)(F)F)cn3)nc3ccsc23)cn1,18 µM,> 50 µM,,,,> 2.7,
COc1ccc(-c2nc(CSCc3cccc(Cl)c3)nc3ccsc23)cn1,23 µM,> 50 µM,,,,> 2.2,
Cc1ccnc2c1NC(=O)c1cccnc1N2C1CC1 [NEVIRAPINE],,> 10 µM,,,,> 66,
